Tests used:
[1] = target: Choline Kinase beta (Homo sapiens, UniProt Q9Y259); assay: Lipid kinase panel, ADP-Glo; format: biochemical
Source text: (§1) Kinase % activity remaining s.d.
(§2) Choline Kinase alpha 101.6 3.2

[2] = target: DGK beta (Homo sapiens, UniProt Q9Y6T7); assay: Lipid kinase panel, ADP-Glo; format: biochemical
Source text: as §1, §2

[3] = target: DGK gamma (Homo sapiens, UniProt P49619); assay: Lipid kinase panel, ADP-Glo; format: biochemical
Source text: as §1, §2

[4] = target: PI3KA E545K +P85 (Homo sapiens, UniProt P42336, E545K); assay: Lipid kinase panel, ADP-Glo; format: biochemical; conditions: PI3KA E545K +P85, 10 μM
Source text: as §1, §2

[5] = target: SPHK2 (Homo sapiens, UniProt Q9NRA0); assay: Lipid kinase panel, ADP-Glo; format: biochemical; conditions: SPHK2, 10 μM
Source text: as §1, §2

[6] = target: ERK1 (Homo sapiens, UniProt P27361); assay: Kinase panel, radiometric 33P filter binding; conditions: read-out: % activity remaining
[7] = target: p38a MAPK (Homo sapiens, UniProt Q16539); assay: Kinase panel, radiometric 33P filter binding; conditions: read-out: % activity remaining
Source text: (§3) filter binding assay using 33P-g-ATPat the MRC PPU International Centre for Kinase Profiling, University of

[8] = target: RSK1 (Homo sapiens, UniProt Q15418); assay: Kinase panel, radiometric 33P filter binding; conditions: read-out: % activity remaining
Source text: as §3

[9] = target: PKCγ (Homo sapiens, UniProt P05129); assay: Kinase panel, radiometric 33P filter binding; conditions: read-out: % activity remaining
Source text: as §3

[10] = target: PKD1 (Homo sapiens, UniProt Q15139); assay: Kinase panel, radiometric 33P filter binding; conditions: read-out: % activity remaining
Source text: as §3

[11] = target: Aurora B (Homo sapiens, UniProt Q96GD4); assay: Kinase panel, radiometric 33P filter binding; conditions: read-out: % activity remaining
Source text: as §3

[12] = target: BRSK2 (Homo sapiens, UniProt Q8IWQ3); assay: Kinase panel, radiometric 33P filter binding; conditions: read-out: % activity remaining
Source text: as §3

[13] = target: SIK2 (Homo sapiens, UniProt Q9H0K1); assay: Kinase panel, radiometric 33P filter binding; conditions: read-out: % activity remaining
Source text: as §3

[14] = target: IKKb (Homo sapiens, UniProt O14920); assay: Kinase panel, radiometric 33P filter binding; conditions: read-out: % activity remaining
Source text: as §3

[15] = target: TBK1 (Homo sapiens, UniProt Q9UHD2); assay: Kinase panel, radiometric 33P filter binding; conditions: read-out: % activity remaining
Source text: as §3

[16] = target: PIM2 (Homo sapiens, UniProt Q9P1W9); assay: Kinase panel, radiometric 33P filter binding; conditions: read-out: % activity remaining
Source text: as §3

[17] = target: EIF2AK3 (Homo sapiens, UniProt Q9NZJ5); assay: Kinase panel, radiometric 33P filter binding; conditions: read-out: % activity remaining
Source text: as §3

[18] = target: PAK6 (Homo sapiens, UniProt Q9NQU5); assay: Kinase panel, radiometric 33P filter binding; conditions: read-out: % activity remaining
[19] = target: GCK (Homo sapiens, UniProt Q12851); assay: Kinase panel, radiometric 33P filter binding; conditions: read-out: % activity remaining
Source text: as §3

[20] = target: MAP4K5 (Homo sapiens, UniProt Q9Y4K4); assay: Kinase panel, radiometric 33P filter binding; conditions: read-out: % activity remaining
Source text: as §3

[21] = target: TAK1 (Homo sapiens, UniProt O43318); assay: Kinase panel, radiometric 33P filter binding; conditions: read-out: % activity remaining
[22] = target: TTK (Homo sapiens, UniProt P33981); assay: Kinase panel, radiometric 33P filter binding; conditions: read-out: % activity remaining
Source text: as §3

[23] = target: HER4 (Homo sapiens, UniProt Q15303); assay: Kinase panel, radiometric 33P filter binding; conditions: read-out: % activity remaining
Source text: as §3

[24] = target: PDGFRA (Homo sapiens, UniProt P16234); assay: Kinase panel, radiometric 33P filter binding; conditions: read-out: % activity remaining
Source text: as §3

[25] = system: PI5P4Kα; set-up: method as in ref 30 (a number printed in a supplementary file, which may have a reference list of its own: not looked up in the article's list); conditions: 32P-ATP/PI5P incorporation; cited from earlier work
[26] = target: T1, PI5P4Kβ (Homo sapiens, UniProt P78356); set-up: method as in ref 30 (a number printed in a supplementary file, which may have a reference list of its own: not looked up in the article's list); conditions: 32P-ATP/PI5P incorporation, showed 'small but significant stimulation'; cited from earlier work
T1 sequence (P78356 1-416): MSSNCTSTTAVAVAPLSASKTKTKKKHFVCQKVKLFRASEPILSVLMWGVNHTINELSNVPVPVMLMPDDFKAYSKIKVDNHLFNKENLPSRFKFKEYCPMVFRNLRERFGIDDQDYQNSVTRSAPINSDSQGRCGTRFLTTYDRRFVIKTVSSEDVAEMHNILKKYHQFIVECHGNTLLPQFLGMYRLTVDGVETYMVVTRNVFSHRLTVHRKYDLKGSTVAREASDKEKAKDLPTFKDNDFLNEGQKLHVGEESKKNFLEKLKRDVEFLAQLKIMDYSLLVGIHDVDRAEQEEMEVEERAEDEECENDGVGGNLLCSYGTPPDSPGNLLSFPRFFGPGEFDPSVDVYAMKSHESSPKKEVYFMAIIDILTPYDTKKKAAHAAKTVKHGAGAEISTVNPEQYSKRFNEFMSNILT

[27] = target: T2, PI5P4Kα (Homo sapiens, UniProt P48426); assay: Thermal shift assay; conditions: read-out: ΔTm PI5P4Kα, thermal shift, compound 63 μM
T2 sequence (P48426 1-406): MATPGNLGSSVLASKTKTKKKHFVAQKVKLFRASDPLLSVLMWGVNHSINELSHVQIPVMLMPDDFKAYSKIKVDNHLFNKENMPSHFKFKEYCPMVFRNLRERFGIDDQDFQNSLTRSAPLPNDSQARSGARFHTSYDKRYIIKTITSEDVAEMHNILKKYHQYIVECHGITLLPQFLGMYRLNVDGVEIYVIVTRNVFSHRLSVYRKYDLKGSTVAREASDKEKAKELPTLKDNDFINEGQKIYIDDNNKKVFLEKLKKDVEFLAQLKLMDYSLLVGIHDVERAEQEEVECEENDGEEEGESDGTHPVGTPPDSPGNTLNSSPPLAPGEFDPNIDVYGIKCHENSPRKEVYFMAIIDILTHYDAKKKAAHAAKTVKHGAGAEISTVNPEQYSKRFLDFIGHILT

Sequence of PKD1 (Q15139 whole entry): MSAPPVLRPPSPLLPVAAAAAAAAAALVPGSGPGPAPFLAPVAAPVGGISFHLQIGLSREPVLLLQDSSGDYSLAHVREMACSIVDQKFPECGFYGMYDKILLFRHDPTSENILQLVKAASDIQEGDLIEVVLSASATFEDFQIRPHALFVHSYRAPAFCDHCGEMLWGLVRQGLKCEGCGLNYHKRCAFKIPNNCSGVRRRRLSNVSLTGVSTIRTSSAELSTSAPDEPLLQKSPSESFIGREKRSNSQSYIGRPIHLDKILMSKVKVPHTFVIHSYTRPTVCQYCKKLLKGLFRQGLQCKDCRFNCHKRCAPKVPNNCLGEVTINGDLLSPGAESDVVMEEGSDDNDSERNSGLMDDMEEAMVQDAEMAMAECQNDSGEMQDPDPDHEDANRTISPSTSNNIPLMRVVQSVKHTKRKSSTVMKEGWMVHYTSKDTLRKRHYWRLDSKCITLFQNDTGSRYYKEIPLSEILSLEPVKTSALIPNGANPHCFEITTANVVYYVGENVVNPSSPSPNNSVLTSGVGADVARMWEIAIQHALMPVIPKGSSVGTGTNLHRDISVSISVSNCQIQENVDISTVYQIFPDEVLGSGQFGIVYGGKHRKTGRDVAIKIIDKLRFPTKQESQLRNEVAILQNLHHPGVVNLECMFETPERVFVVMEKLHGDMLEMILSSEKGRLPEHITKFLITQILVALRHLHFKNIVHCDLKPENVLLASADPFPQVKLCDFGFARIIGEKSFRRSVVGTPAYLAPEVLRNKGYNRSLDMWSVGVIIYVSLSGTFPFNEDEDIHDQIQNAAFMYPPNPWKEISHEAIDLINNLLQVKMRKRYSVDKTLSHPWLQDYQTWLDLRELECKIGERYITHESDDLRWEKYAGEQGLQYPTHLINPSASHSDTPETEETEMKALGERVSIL
Sequence of SPHK2 (Q9NRA0 whole entry, species assumed): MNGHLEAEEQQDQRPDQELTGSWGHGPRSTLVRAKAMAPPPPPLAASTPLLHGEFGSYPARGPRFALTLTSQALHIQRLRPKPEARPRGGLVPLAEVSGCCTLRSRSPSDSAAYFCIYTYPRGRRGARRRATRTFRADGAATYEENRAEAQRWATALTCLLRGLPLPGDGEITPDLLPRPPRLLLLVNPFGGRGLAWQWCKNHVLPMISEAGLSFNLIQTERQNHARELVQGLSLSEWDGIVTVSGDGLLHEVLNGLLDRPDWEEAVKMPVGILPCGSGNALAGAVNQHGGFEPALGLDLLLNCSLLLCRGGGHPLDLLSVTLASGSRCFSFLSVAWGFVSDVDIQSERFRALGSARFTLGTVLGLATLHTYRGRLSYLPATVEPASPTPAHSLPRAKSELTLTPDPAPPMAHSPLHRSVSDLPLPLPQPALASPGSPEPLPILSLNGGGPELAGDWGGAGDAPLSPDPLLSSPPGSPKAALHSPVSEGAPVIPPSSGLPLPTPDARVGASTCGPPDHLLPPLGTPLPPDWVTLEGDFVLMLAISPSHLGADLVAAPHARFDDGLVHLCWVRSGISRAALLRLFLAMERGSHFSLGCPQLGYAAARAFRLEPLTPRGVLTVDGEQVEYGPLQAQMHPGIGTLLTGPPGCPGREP
Sequence of HER4 (Q15303 26-1308): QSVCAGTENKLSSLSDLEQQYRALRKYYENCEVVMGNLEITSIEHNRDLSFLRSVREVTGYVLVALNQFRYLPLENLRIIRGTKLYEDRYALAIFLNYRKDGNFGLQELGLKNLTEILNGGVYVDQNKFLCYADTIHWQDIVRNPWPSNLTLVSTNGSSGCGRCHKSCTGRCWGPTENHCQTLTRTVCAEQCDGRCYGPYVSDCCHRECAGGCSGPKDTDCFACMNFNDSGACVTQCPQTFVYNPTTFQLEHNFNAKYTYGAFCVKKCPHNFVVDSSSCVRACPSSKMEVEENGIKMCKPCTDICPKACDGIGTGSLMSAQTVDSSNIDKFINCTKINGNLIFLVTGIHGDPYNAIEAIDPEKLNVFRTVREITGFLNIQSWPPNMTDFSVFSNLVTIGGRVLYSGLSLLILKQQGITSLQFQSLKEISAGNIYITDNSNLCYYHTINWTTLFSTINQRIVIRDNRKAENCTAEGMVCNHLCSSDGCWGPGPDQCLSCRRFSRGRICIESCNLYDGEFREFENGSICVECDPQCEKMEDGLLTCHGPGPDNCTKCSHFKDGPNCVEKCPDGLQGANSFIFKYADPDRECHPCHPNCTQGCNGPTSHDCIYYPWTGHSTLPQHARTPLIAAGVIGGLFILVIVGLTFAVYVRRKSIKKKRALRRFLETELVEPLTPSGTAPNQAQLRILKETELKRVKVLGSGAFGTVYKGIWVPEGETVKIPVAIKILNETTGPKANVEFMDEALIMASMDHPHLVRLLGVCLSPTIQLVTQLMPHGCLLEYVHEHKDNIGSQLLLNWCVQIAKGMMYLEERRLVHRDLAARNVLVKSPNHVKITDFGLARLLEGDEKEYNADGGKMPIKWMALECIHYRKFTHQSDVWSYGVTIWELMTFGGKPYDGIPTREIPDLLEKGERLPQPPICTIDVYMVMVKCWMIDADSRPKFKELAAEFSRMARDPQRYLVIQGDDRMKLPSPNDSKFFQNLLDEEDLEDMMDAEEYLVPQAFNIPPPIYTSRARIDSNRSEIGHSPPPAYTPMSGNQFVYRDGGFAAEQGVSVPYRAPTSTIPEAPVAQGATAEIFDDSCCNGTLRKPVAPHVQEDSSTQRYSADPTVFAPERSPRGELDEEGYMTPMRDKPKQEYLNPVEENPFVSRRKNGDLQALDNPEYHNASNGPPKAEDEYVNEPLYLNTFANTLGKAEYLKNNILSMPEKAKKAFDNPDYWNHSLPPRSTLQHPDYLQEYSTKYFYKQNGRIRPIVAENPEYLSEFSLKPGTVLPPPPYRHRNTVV
Sequence of TAK1 (O43318 1-303 limits assumed): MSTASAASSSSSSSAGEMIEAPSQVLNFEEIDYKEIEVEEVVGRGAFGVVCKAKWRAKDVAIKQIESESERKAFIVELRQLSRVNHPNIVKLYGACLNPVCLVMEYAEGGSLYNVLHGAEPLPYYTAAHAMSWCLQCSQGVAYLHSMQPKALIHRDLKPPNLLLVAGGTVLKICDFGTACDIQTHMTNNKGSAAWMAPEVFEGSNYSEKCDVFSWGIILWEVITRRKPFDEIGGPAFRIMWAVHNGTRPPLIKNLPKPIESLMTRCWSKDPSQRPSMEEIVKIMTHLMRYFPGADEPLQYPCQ
Sequence of RSK1 (Q15418 whole entry): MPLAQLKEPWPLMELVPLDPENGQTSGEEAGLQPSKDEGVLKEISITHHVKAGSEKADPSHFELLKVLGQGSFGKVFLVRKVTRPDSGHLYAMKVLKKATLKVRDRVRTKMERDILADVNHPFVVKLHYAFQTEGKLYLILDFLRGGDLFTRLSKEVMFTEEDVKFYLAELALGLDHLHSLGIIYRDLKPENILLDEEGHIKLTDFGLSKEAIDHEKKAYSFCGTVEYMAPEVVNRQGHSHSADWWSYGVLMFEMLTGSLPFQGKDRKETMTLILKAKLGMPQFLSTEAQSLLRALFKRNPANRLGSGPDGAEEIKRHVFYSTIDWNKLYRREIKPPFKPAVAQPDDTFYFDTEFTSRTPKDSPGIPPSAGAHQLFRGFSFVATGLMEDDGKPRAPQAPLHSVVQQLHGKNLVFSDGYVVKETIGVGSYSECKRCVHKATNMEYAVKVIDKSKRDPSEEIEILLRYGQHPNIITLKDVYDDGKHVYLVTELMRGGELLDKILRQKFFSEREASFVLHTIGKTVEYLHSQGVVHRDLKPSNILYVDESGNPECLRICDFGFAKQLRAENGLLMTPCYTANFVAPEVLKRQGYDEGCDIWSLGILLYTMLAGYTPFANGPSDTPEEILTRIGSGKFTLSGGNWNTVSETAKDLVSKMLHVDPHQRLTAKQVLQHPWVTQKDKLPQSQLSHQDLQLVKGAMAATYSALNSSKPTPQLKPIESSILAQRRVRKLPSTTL
Sequence of PIM2 (Q9P1W9 whole entry): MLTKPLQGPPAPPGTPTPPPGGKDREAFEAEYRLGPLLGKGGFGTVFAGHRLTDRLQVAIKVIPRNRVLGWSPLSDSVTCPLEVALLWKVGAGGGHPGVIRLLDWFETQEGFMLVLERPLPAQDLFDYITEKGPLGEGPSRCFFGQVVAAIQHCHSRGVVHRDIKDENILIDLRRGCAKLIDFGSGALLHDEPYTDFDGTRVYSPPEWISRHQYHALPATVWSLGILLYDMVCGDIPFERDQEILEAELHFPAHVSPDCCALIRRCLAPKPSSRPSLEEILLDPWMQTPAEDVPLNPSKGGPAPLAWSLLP
Sequence of p38a MAPK (Q16539 whole entry): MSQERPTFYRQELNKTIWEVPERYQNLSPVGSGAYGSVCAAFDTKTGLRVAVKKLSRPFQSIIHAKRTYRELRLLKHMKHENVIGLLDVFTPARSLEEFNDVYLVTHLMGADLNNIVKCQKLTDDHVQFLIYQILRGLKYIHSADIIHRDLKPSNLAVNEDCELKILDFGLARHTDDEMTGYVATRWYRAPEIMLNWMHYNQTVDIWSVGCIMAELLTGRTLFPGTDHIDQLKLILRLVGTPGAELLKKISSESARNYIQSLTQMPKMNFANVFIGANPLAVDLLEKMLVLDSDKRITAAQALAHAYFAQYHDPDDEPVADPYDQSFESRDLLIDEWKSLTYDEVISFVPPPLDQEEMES
Sequence of Choline Kinase beta (Q9Y259 whole entry, species assumed): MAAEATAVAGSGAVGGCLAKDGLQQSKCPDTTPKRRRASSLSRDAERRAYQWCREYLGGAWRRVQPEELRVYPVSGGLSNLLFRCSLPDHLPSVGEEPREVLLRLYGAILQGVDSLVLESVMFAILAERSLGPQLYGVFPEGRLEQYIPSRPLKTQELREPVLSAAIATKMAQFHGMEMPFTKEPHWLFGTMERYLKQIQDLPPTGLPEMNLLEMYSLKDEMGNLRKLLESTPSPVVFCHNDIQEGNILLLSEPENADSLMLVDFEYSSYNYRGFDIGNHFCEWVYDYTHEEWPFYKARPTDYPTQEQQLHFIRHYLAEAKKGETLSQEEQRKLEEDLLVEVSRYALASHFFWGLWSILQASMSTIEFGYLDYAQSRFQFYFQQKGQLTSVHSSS

## CC(C)c1ccccc1-c1nc(NCc2ccccn2)c2c(ccn2C)n1 [Compound 40]
[1]
  remaining activity at 10 µM: 97.3%
[2]
  remaining activity at 10 µM: 102%
[3]
  remaining activity at 10 µM: 99.4%
[4]
  remaining activity at 10 µM: 91.7%
[5]
  remaining activity at 10 µM: 83.8%
[6]
  remaining activity at 10 µM: 111%
[7]
  remaining activity at 10 µM: 100%
[8]
  remaining activity at 10 µM: 99%
[9]
  remaining activity at 10 µM: 77%
[10]
  remaining activity at 10 µM: 109%
[11]
  remaining activity at 10 µM: 113%
[12]
  remaining activity at 10 µM: 83%
[13]
  remaining activity at 10 µM: 100%
[14]
  remaining activity at 10 µM: 100%
[15]
  remaining activity at 10 µM: 93%
[16]
  remaining activity at 10 µM: 110%
[17]
  remaining activity at 10 µM: 103%
[18]
  remaining activity at 10 µM: 95%
[19]
  remaining activity at 10 µM: 93%
[20]
  remaining activity at 10 µM: 112%
[21]
  remaining activity at 10 µM: 110%
[22]
  remaining activity at 10 µM: 94%
[23]
  remaining activity at 10 µM: 112%
[24]
  remaining activity at 10 µM: 100%

## FC(F)(F)c1ccccc1-c1nc(NCc2cccs2)c2ccccc2n1 [Compound 1, NIH-12848, reference compound]
[25]
  IC50: > 100 µM
[26]
  IC50: > 100 µM
[27]
  ΔTm at 63 µM: -0.2 ± 0.4 °C

From publication PMC9097471, “Development of Selective Phosphatidylinositol 5-Phosphate 4-Kinase γ Inhibitors with a Non-ATP-competitive, Allosteric Binding Mode” (Journal of Medicinal Chemistry, 2022)
